From EP0311322B1, “Pyridine or pyridazine derivatives as cardio-protective agents and for the treatment of ischemic disease, and process for their preparation” (FUJISAWA PHARMACEUTICAL CO., LTD., priority 1987, dated 1989)

What was measured:
Male SD rats [1] = assay: Test 3: myocardial infarction induced by DL-isoproterenol hydrochloride in rats, mortality and myocardial ATP content; format: in vivo; conditions: dose 1.0 mg/kg intraperitoneally, DL-isoproterenol hydrochloride 120 mg/kg subcutaneously
Procedure: Ten male SD rats weighing 140-170 g were used for each group. Test compound was administered intraperitoneally, and then myocardial infarction was induced by administering DL-isoproterenol hydrochloride (120 mg/kg) subcutaneously. After 24 hours, mortality was examined. Survival rats were anesthetized and their hearts were taken out and frozen immediately for the measurement of myocardial ATP content.

[2] = tested on: heart isolated from male guinea-pig; assay: Test 1: isolated guinea-pig heart perfused in the Langendorff mode, global ischemia (35 min) and reperfusion (40 min); conditions: for % change from control Cardiac depression (pre-ischemia) LVSP x HR: 15 min before ischemia; for % change from control recovery of ATP content (% increase): after 35 min ischemia and 40 min reperfusion
Procedure: The heart was isolated from male guinea-pig weighing 550-650 g and was perfused in the Langendorff mode at 37°C at a constant perfusion pressure of 80 cm H₂O. The perfusion medium was Krebs-Henseleit bicarbonate solution containing 11 mM glucose. The solution was equilibrated with 95% O₂ and 5% CO₂ gas mixture at pH 7.4. A latex balloon was placed in the left ventricular cavity and then left ventricular systolic (LVSP) and diastolic (LVDP) pressure were measured. Heart rate (HR) was triggered by the pulse pressure. Coronary flow was monitored with electromagnetic flow probe placed on the aorta.
The heart was perfused for 45 min. with the perfusion medium and then for 15 min. with the perfusion medium containing the test compound. The heart was then subjected to the global ischemia by stopping the perfusion. After 35 min. of ischemia, the heart was reperfused by the perfusion medium containing no test compound. At the end of 40 min. reperfusion, the cardiac function was monitored. The heart was immidiately frozen for the estimation of ATP content.

Male SD rats [3] = assay: Test 2: left coronary artery occlusion (5 min) and reperfusion (10 min) in anesthetized rats, incidence of VT, VF and mortality; format: in vivo; conditions: 10 min before occlusion
Procedure: Male SD rats weighing 270-340 g were anesthetized with sodium pentobarbital. The chest was opened, and then a thread was placed around the left coronary artery near the origin. Both ends of the thread were passed through a small plastic tube. After standing for 5 minutes, test compound was administered intravenously. After 10 minutes, the left coronary artery was occluded for 5 minutes by pulling the thread and pressing the plastic tube to the artery and then reperfusion was achieved by releasing the occlusion for 10 minutes. Electrocardiograms were recorded and analyzed for checking inhibitory rate of incidence of ventricular tachycardia (VT) and ventricular fibrillation (VF) in comparison with control group, and inhibitory rate of mortality as compared with control group was also calculated. 11-18 rats were used for each test group.

male ddY mice = assay: Test 4: foot edema after occlusion of the right leg with a rubber band and release in mice; format: in vivo; conditions: 20 min occlusion, 20 min after cutting the band
Procedure: Five male ddY mice weighing 27-32 g were used for each group. After test compound was administered intravenously, the right leg was occluded by binding 10 times a rubber band (diameter : 42 mm) round it. After 20 minutes later, the rubber band was cut and thickness of foot pad was measured by a dial gage immediately and 20 minutes after cutting the band. The difference of these two values was regarded as edema.

[4] = concentration 1 x 10⁻⁵ g/ml in perfusion medium

| SMILES | % change from control coronary flow ([2]; concentration 1 x 10⁻⁵ g/ml) [%] | % change from control Cardiac depression (pre-ischemia) LVSP x HR [2, 4] [%] | % change from control recovery of ATP content (% increase) ([2]; concentration 1 x 10⁻⁵ g/ml) [%] | Inhibition (%) of foot edema (male ddY mice; dose 1.0 mg/kg intravenously) [%] | other results |
| --- | --- | --- | --- | --- | --- |
| Cc1nc(-c2ccccc2)cc(-c2cccc([N+](=O)[O-])c2)c1C(=O)NCCN1CCOCC1 [(a), 3-(2-Morpholinoethylcarbamoyl)-2-methyl-4-(3-nitrophenyl)-6-phenylpyridine] | 32.0 | -1.7 | 89.5 | 30 | Inhibition (%) of mortality (Male SD rats [1]; after 24 hours, % change as compared with mortality rate in control group): 75%; Recovery (%) of ATP content (Male SD rats [1]; myocardial ATP of surviving rats after 24 hours): 67%; % change from control coronary flow ([2]; concentration 1 x 10⁻⁶ g/ml): -1.6%; % change from control Cardiac depression (pre-ischemia) LVSP x HR ([2]; concentration 1 x 10⁻⁶ g/ml in perfusion medium): 4.1%; % change from control recovery of ATP content (% increase) ([2]; concentration 1 x 10⁻⁶ g/ml): 96.3%; Inhibition (%) of incidence as compared with control group Mortality (Male SD rats [3]; dose 1.0 mg/kg intravenously): 13.5%; Inhibition (%) of incidence as compared with control group VF (Male SD rats [3]; dose 1.0 mg/kg intravenously): 28.0%; Inhibition (%) of incidence as compared with control group VT (Male SD rats [3]; dose 1.0 mg/kg intravenously): 0%; Inhibition (%) of incidence as compared with control group Mortality (Male SD rats [3]; dose 3.2 mg/kg intravenously): 52.5%; Inhibition (%) of incidence as compared with control group VF (Male SD rats [3]; dose 3.2 mg/kg intravenously): 60.4%; Inhibition (%) of incidence as compared with control group VT (Male SD rats [3]; dose 3.2 mg/kg intravenously): 0%; Inhibition (%) of incidence as compared with control group Mortality (Male SD rats [3]; dose 10 mg/kg intravenously): 78.9%; Inhibition (%) of incidence as compared with control group VF (Male SD rats [3]; dose 10 mg/kg intravenously): 82.4%; Inhibition (%) of incidence as compared with control group VT (Male SD rats [3]; dose 10 mg/kg intravenously): 5.6%; Inhibition (%) of foot edema (male ddY mice; dose 0.1 mg/kg intravenously): 12%; Inhibition (%) of foot edema (male ddY mice; dose 10 mg/kg intravenously): 42% |
| Cc1cc(-c2ccccc2)nc(-c2cccc([N+](=O)[O-])c2)c1C(=O)NCCN1CCOCC1 [(c), 4-Methyl-3-(2-morpholinoethylcarbamoyl)-2-(3-nitrophenyl)-6-phenylpyridine] | 31.9 | -38.9 | 71.3 |  |  |
| Cc1nc(-c2ccccc2)cc(-c2cccc([N+](=O)[O-])c2)c1C(=O)N1CCN(C)CC1 [(d), 2-Methyl-3-(4-methylpiperazin-1-ylcarbonyl)-4-(3-nitrophenyl)-6-phenylpyridine] | 5.0 | -29.7 | 123.6 | 41.5 |  |
| Cc1nc(-c2ccccc2)cc(-c2cccc([N+](=O)[O-])c2)c1NC(=O)NCCN(C)C [(g), 3-[3-(2-Dimethylaminoethyl)ureido]-2-methyl-4-(3-nitrophenyl)-6-phenylpyridine] | -42.7 | -85.7 | 78.6 |  |  |
| Cc1nc(-c2ccccc2)cc(-c2cccc([N+](=O)[O-])c2)c1C(=O)NCCN(C)C [(e), 3-(2-Dimethylaminoethylcarbamoyl)-2-methyl-4-(3-nitrophenyl)-6-phenylpyridine] | -10.2 | -90.6 | 76.3 |  |  |
| Cc1nc(-c2ccccc2)cc(-c2cccc([N+](=O)[O-])c2)c1C(=O)NCCN1CCSCC1.O=C(O)/C=C/C(=O)O [(f), 2-Methyl-4-(3-nitrophenyl)-6-phenyl-3-[2-(4-thiomorpholinyl)ethylcarbamoyl]pyridine fumarate] | 22.5 | -45.2 | 64.9 | 22 |  |
| CN1CCN(Cc2nnc(-c3ccccc3)cc2-c2cccc([N+](=O)[O-])c2)CC1 [(b), 3-(4-Methylpiperazin-1-ylmethyl)-4-(3-nitrophenyl)-6-phenylpyridazine] | -30.6 | -95.8 | 100.4 |  |  |
